{"source": "patent US20140235630A1", "about": "“COMPOSITIONS AND METHODS FOR THE TREATMENT OF PROLIFERATIVE DISEASES” (Beth Israel Deaconess Medical Center, Inc., priority 2011, published 2014)", "key": {"HCC1937 cells": {"test_system": "HCC1937 cells", "test": "DNA damage response immunoblots with or without ionizing radiation (10 Gy)", "type": "cell-based, human", "experimental": "FIG. 5A are immunoblots showing the effects of Compound A, ATM inhibitor KU-55933, and their combination on the DNA damage response. HCC1937 were treated for 18 hours with Compound A at 2.5 μM, KU55933 at 10 μM, or their combination, subjected to ionizing irradiation with 10 Gy or mock, lysed 6 hours later, and subjected to immunoblotting. […] Immunoblots were performed using the Nupage System (Invitrogen). The protein concentration was determined using Bradford reagent (Biorad). A total of 20 μg of protein were loaded, except for PAR, Phospho ATM and Phospho DNA-PK/PRKDC western blots, where 40 μg were loaded. Tumor tissue lysates were prepared similarly with the exception of tissue homogenization by using an electric homogenizer for 30 secs after addition of the lysis buffer. Primary antibodies used for western blotting were total AKT (9272), Cleaved […] 3 (9661), total ERK (4695), Phospho AKT Ser473 (4058), Phospho ERK Thr202/Tyr204 (9106), Phospho-Histone H2AX Ser139 (2577), PTEN (9559) from Cell Signaling. Phospho ATM […] (2152-1), Phospho DNA-PK/PRKDC […] (3892-1) from Epitomics, Inc. CD31 (ab28364), Actin (ab6276), INPP4B (ab81269) from Abcam; pADPr (sc56198) from Santacruz Biotechnology; and Ki-67 (RM-9106) was purchased from Thermo Scientific."}, "[1]": {"test_system": "breast cancer cells isolated from tumors of MMTV-CreBRCA1^f/fp53+/− mice", "test": "Rad51 foci immunofluorescence after ionizing radiation", "type": "cell-based, mouse", "conditions": "pre-treatment, 10 Gy, 6 hours post-irradiation", "experimental": "FIGS. 5B-5E are immunofluorescence images of breast cancer cells isolated from primary tumors from MMTV-CreBRCA1^f/fp53+/− mice either treated with vehicle control (5B and 5C) or Compound A (5D and 5E) for 18 hours, followed by irradiation with 10 Gy IR 6 hours later cells, using antibodies against Rad51 and counterstained with DAPI. Rad51 foci are depicted as lighter punctuate signals within the cells (5C).\nCells were plated on coverslips in a 6-well plates and incubated overnight at 37° C. with 5% CO2 before drug treatment. Cells were exposed to 5-(2,6-dimorpholinopyrimidin-4-yl)-4-(trifluoromethyl)pyridin-2-amine (Compound A) for […] followed by irradiation (10 Gy). Cells were fixed with 3% paraformaldehyde and 2% sucrose diluted in PBS 6 h post-irradiation and subsequently permeabilized with 0.5% TritonX-100 buffer (20 mM HEPES pH7.4, 50 mM NaCl, 3 mM MgCl, 300 mM sucrose) for 3 minutes on ice. Cells were incubated with a primary rabbit anti human Rad-51 antiserum at 1:500 dilution in hybridization buffer (5% goat serum, 0.5% NaN3, 1×PBS) for 30 min at 37° C. and subsequently washed thrice in PBS before incubation with secondary antibody for 30 minutes at 37° C. Secondary antibody used was a donkey anti-rabbit Alexafluor 488 conjugated (Invitrogen) at a concentration of 1:50. […]"}, "[2]": {"test_system": "tumor tissue of MMTV-CreBRCA1^f/fp53+/− mice", "test": "Immunohistochemistry / immunoblot of tumor tissue for γH2AX, Ki67, p-ERK", "parameters": "species or system mouse", "conditions": "in vivo treated tumors", "experimental": "FIG. 4B are immunohistochemical images of pre-treatment biopsies and post-Compound A treatment tumor tissues with antibodies against p-ERK, Ki67, and γH2AX showing an in vivo increase of γH2AX-positive cells after treatment with Compound A and proliferative activity at the “pushing margin.” Tumor-bearing mice were subjected to a pre-treatment biopsy and then treated with Compound A at 50 mg/kg/day. FIG. 6E are immunoblots with antibodies against actin, p-AKT, and γH2AX of tumor tissues harvested from animals 3 hours after last treatment with Compound A (30 mg/kg/day), Compound B (50 mg/kg/day), or their combination. FIG. 8A are immunohistochemical images of tumor tissues obtained from tumor-bearing […] pre-treatment (left column of images), at Day 10 of treatment (middle column of images), and post-treatment tissue at the time of progression (right column of images) following treatment with a combination of Compound A and Compound B. FIG. 8B is a graph of Ki67 (right bar graph in each treatment group) and γH2AX (left bar graph in each treatment group) levels in tumor biopsies in pre-treatment, on-treatment, and post-treatment at the time of progression groups. Ki67 and γH2AX were scored by counting and averaging the number of positive nuclei per high-power field (HPF). […] The protein concentration was determined using Bradford reagent (Biorad). […]"}}, "data": [{"molecule": "Nc1cc(C(F)(F)F)c(-c2cc(N3CCOCC3)nc(N3CCOCC3)n2)cn1", "note": "[Compound A, 5-(2,6-dimorpholinopyrimidin-4-yl)-4-(trifluoromethyl)pyridin-2-amine]", "values": [{"measurement": "H2AX phosphorylation in response to ionizing radiation", "setting": "HCC1937 cells; 18 hours pre-treatment, 10 Gy, lysed 6 hours later", "result": "prominent augmentation"}, {"measurement": "auto-phosphorylation of DNA-PK", "setting": "HCC1937 cells; Compound A 2.5 μM, 18 hours", "result": "strong increase"}, {"measurement": "PAR accumulation", "setting": "HCC1937 cells; Compound A 2.5 μM, KU55933 10 μM", "result": "increased"}, {"measurement": "Rad51 accumulation in response to ionizing radiation", "setting": "HCC1937 cells; pre-treatment, 10 Gy", "result": "failure to increase Rad51"}, {"measurement": "formation of Rad51 foci in response to ionizing radiation", "setting": "[1]", "result": "completely blocked"}, {"measurement": "percentage of tumor cells that express γH2AX / γH2AX in tumor lysates", "setting": "[2]", "result": "substantial increase"}]}]}
